What was measured:
STAT3 = assay: NanoPro immunoassay pSTAT3/STAT3 in lung extracts, MCT+PN model; format: in vivo, rat; conditions: D4 and D8 groups compared to vehicle
Text: (§1) Histology and morphometric analysis. At the end of the study, the heart and lungs were removed from ventilated animals under general anesthesia. Heparinized saline was infused under pressure through the main pulmonary artery. The right upper lobe was immediately tied off and placed in liquid nitrogen for Western blot and NanoPro 100 ™ assay analysis. The heart was removed, and the RV free wall, interventricular septum and LV free wall dissected and weighed. Buffered formalin (10%) was infused under pressure both through the pulmonary artery and the trachea. Morphometric analysis was performed on H&E stained formalin fixed tissue sectioned at 8 μm. The media area and lumen area of pulmonary arterioles were measured with Image J software by a technician blinded to treatment group. Measurements were made on 20 pulmonary arterioles per section. The ratio of the lumen area to the total media area was determined This ratio normalizes the variation in total pulmonary arteriole area. […]
(§2) NanoPro Immunoassay™. Relative differences in phosphorylated ERK1/2 and STAT isoforms were measured with a NanoPro100™ immunoassay system (Protein Simple/Cell Biosciences, CA). […]

rat MCT+PN model [1] = assay: RV pressure, PV loops, RV hypertrophy and morphometry in the rat MCT+PN model; format: in vivo; conditions: for ESV: PV loop, second part of Table 3
Description: Measurement of PV loops. In a separate cohort of animals, the MCT+PN model was developed as described above, and PK10453 (Structure 2) was then administered for 4 or 8 min three times a day to the drug treated group. The vehicle control group underwent 4 min exposures three times a day. Pressure Volume (PV) loops were obtained with an admittance system (Scisense, Inc.) after 14 days of treatment, while rats were under general anesthesia with isoflurane and 100% FiO2. Also, or in the alternative, RV pressures were obtained in each group after 14 days of treatment. In a subset of each group, pressure Volume (PV) loops were obtained with an admittance system (high fidelity catheter FTE1918B, Scisense, Inc.) after 14 days of treatment. After induction of general anesthesia and intubation via tracheostomy, the rats were placed on a pressure controlled ventilator (TOPOVENT). General anesthesia consisted of isoflurane and 100% FiO2 with peak inspiratory pressure set at 18 cm, and PEEP 5 cm H2O. A left thoracotomy was performed with admittance catheter in the RV via the RV outflow tract.
as §1

ERK1/2 = assay: NanoPro immunoassay pERK1/2 in lung homogenates, MCT+PN model; format: in vivo, rat; conditions: D4 and D8 groups compared to vehicle
Text: as §1, §2

rat MCT+PN model [2] = assay: Telemetry study of PA pressure in the rat MCT+PN model; format: in vivo; conditions: by inhalation
Description: Efficacy study in the rat MCT+PN model. Pneumonectomy and implantation of a TRM53P telemetry monitor in the pulmonary artery (Telemetry Research, New Zealand and ADlnstruments, Colorado) was carried out in rats. Two weeks after MCT, PK10453 (Structure 2) was administered three times daily for 1 week. […] Sampling of PA pressure was performed 5 min before each morning dose in ambulatory animals in room air (estimated atmospheric pressure 716 mm Hg based on elevation of animal facility). […] Telemetry data was obtained for 10 min daily before each morning dose for this protocol.

[3] = Systemic blood pressure study in ambulatory MCT treated rats; format: in vivo, rat; conditions: inhalation
Description: Systemic blood pressure study. The effect of PK10453 (Structure 2) on systemic BP was studied in ambulatory MCT treated rats with DSI PAC40 transmitters implanted in the descending aorta. […] Blood pressure was recorded before each morning dose.

[4] = tested on: PDGFBB stimulated phosphorylation of ERK1 and ERK2; assay: PDGFBB stimulated phosphorylation of ERK1 and ERK2 in human fetal lung fibroblasts; format: cell-based
[5] = Pharmacokinetic study, lung and plasma levels after inhalation or IV; format: in vivo, rat
Description: Pharmacokinetic studies. PK10453 (Structure 2) was administered intravenously or by inhalation to animals, which were then euthanized at time 0, 10, 20, and 60 min (n=3 each time point). Blood samples were taken by cardiac puncture, and the lungs excised. The lungs were homogenized and PK10453 (Structure 2) extracted with a 1:3 mixture of acetonitrile:methanol. Similarly, plasma was extracted with a 1:3 mixture of acetonitrile:methanol. Drug was assayed by LC MS/MS (PharmOptima Inc., Portage Mich.). First order exponential curves were fit to the data with Excel. AUC was determined with the trapezoidal method of integration.
For the pharmacokinetic study, the concentration of PK10453 (Structure 2) in lung when administered by inhalation was compared to the concentration achieved with IV administration. As described in Morén “Aerosols in medicine : principles, diagnosis, and therapy.” Amsterdam; New York: Elsevier. (1993) and Phalen et al., “Inhalation exposure methodology.” Environ Health Perspect 56:23-34 (1984)), it is possible to estimate the pharmacokinetic advantage of inhalation relative to intravenous administration, Rd, by comparing the AUC of a plot of the drug concentration as a function of time following respiratory and IV administration: Rd=[(AUClung/AUCplasma)respiratory]/[(AUClung/AUCplasma)IV]

[6] = tested on: PDGFAA stimulated AKT phosphorylation; assay: In cell Western (ICW), PDGFAA stimulated AKT phosphorylation in human fetal lung fibroblasts; format: cell-based; conditions: comparison in words
Description: In cell Western (ICW). […] HLFs were maintained in subculture at no more than 6 passages in DMEM with 5% FBS and 4 mM Glutamax at 37° C., 5% CO2. HLFs were plated and grown to 70-80% confluence in 96 well plates then serum-starved for 48 hours. […] After washing, the signal was quantified using an Odyssey Infrared Imaging System (LI-COR). Phosphoprotein signal (800 nm) was normalized to total protein signal (700 nm) acquired from each well and experimental duplicates on same plate were averaged and reported.

rat MCT model = conditions: 8 min inhalation 3x/day, two weeks
Description: At the end of the study RVSP pressure was measured; lung and heart fixed in formalin. For measurement of RVSP animals were sedated with isoflurane, intubated via a tracheostomy, and ventilated with a TOPOVENT pressure regulated ventilator (peak inspiratory pressure 18 cm H2O, PEEP 5 cm). After sternotomy, a Scisense high fidelity catheter inserted via the RV apex.
Histology and morphometric analysis. At the end of the study, the heart and lungs were removed from ventilated animals under general anesthesia. Heparinized saline was infused under pressure through the main pulmonary artery. […] The heart was removed, and the RV free wall, interventricular septum and LV free wall dissected and weighed. Buffered formalin (10%) was infused under pressure both through the pulmonary artery and the trachea. Morphometric analysis was performed on H&E stained formalin fixed tissue sectioned at 8 μm. The media area and lumen area of pulmonary arterioles were measured with Image J software by a technician blinded to treatment group. Measurements were made on 20 pulmonary arterioles per section. The ratio of the lumen area to the total media area was determined This ratio normalizes the variation in total pulmonary arteriole area. […] Briefly, pre-capillary arterioles were assigned grade 0 for no evidence of neointimal lesions, grade 1 for less than 50% luminal occlusion, and grade 2 for greater than 50% occlusion.

## COc1cc(-c2cncc(N[C@@H](C)c3cccc(NC(=O)c4cncc(C)c4)c3)n2)ccc1O [PK10453, (S)-N-(3-(1-((6-(4-hydroxy-3-methoxyphenyl)pyrazin-2yl)amino)ethyl)phenyl)-5-methylnicotinamide]
STAT3
  pSTAT3/STAT3 ratio: significant reduction
Rat MCT+PN model [1]; D8: 8 min 3x/day, 14 days
  RV systolic pressure: 43.0±3.0 mm Hg
Rat MCT+PN model [1]; D4, mean
  ESV: 408.95 µL
Rat MCT+PN model [1]; D8, mean
  ESV: 488.68 µL
ERK1/2
  pERK1/ERK1 in lung homogenates: significant reductions
  ppERK1/ERK1 in lung homogenates: significant reductions
Rat MCT+PN model [2]
  efficacy in the MCT+PN model, in words: prevented the progression of PAH
[3]
  effect on systemic BP, in words: did not have an adverse effect
[4]; 1 uM
  PDGFBB stimulated ppERK1 formation: effective
[4]; 1 uM and 10 uM
  decreasing PDGF BB stimulated ppERK1 and ppERK2, compared to imatinib: more effective
[5]; inhalation relative to IV
  Rd = [(AUClung/AUCplasma)respiratory]/[(AUClung/AUCplasma)IV]: 44.6
[5]; lung/plasma AUC ratio
  advantage of inhaled compared to IV administration: 45 fold
[6]
  IC50 for PDGFAA stimulated phosphorylation of AKT, PK10453 vs imatinib: not significantly different
Rat MCT model
  End systolic volume: 99.5 ± 10 µL
